What all share (test): Kinobeads competition binding, HL60 cell lysate
Holding throughout (settings): 10 μM free compound

One experiment deals with T1, CDK10 (Homo sapiens, UniProt Q15131).
T1 construct: endogenous in cells; host or cells: HL60 cells
Here is the method: (§1) To one aliquot of cell lysate 10 μM of the free compound (FIG. 3, CZC31326) was added and allowed to bind to proteins in the lysate. Then the affinity matrix with the immobilized compound (Example 1) was added to capture proteins that were not interacting with the previously added free compound. Beads were separated from the lysate and bead bound proteins were eluted in SDS sample buffer and subsequently separated by SDS-Polyacrylamide gel electrophoresis (FIG. 4). Suitable gel bands were cut out and subjected to in-gel proteolytic digestion with trypsin. The second lysate aliquot was processed identically, however no free compound was added (DMSO solvent control). Peptides originating from samples 1 and 2 were labeled with iTRAQ reagents (iTRAQ 114 and iTRAQ 117) and the combined samples were analyzed with a nano-flow liquid chromatography system coupled online to a tandem mass spectrometer (LC-MS/MS) experiment followed by iTRAQ reporter ion quantification in the MS/MS spectra (Ross et al., 2004. Mol. Cell. Proteomics 3(12):1154-1169). Further experimental protocols can be found in WO2006/134056 and a previous publication (Bantscheff et al., 2007. Nature Biotechnology 25, 1035-1044). Sepharose-beads with the immobilized compound (100 μl beads per pull-down experiment) were equilibrated in lysis buffer and incubated with a cell lysate sample containing 50 mg of protein on an end-over-end shaker (Roto Shake Genie, Scientific Industries Inc.) for 2 hours at 4° C. Beads were collected, transferred to Mobicol-columns (MoBiTech 10055) and washed with 10 ml lysis buffer containing 0.4% NP40 detergent, followed by 5 ml lysis buffer containing 0.2% detergent. To elute bound proteins, 60 μl 2×SDS sample buffer was added to the column. The column was incubated for 30 minutes at 50° C. and the eluate was transferred to a siliconized microfuge tube by centrifugation. Proteins were then alkylated with 108 mM iodoacetamid. Proteins were then separated by SDS-Polyacrylamide electrophoresis (SDS-PAGE). The peptide extracts of samples treated with 10 μM of free compound (CZC31326) and the solvent control (0.5% DMSO) were treated with different variants of the isobaric tagging reagent (iTRAQ Reagents Multiplex Kit, part number 4352135, Applied Biosystems, Foster City, Calif., USA). The iTRAQ reagents are a set of multiplexed, amine-specific, stable isotope reagents that can label peptides on amino groups in up to four different biological samples enabling simultaneous identification and quantitation of peptides. The iTRAQ reagents were used according to instructions provided by the manufacturer. The samples were resuspended in 10 μl 50 mM TEAB solution, pH 8.5 and 10 μl ethanol were added. The iTRAQ reagent was dissolved in 120 μl ethanol and 10 μl of reagent solution were added to the sample. The labeling reaction was performed at room temperature for one hour on a horizontal shaker and stopped by adding 5 μl of 100 mM TEAB and 100 mM glycine in water. The two labeled sampled were then combined, dried in a vacuum centrifuge and resuspended in 10 μl of 0.1% formic acid in water. Relative protein quantitation was performed using peak areas of iTRAQ reporter ion signals essentially as described in an earlier publication (Bantscheff et al., 2007. Nature Biotechnology 25, 1035-1044).

In another experiment the target is T2, CSK (Homo sapiens, UniProt P41240).
T2 construct: endogenous in cells; host or cells: HL60 (DSMZ ACC3)
T2 sequence (P41240 whole entry): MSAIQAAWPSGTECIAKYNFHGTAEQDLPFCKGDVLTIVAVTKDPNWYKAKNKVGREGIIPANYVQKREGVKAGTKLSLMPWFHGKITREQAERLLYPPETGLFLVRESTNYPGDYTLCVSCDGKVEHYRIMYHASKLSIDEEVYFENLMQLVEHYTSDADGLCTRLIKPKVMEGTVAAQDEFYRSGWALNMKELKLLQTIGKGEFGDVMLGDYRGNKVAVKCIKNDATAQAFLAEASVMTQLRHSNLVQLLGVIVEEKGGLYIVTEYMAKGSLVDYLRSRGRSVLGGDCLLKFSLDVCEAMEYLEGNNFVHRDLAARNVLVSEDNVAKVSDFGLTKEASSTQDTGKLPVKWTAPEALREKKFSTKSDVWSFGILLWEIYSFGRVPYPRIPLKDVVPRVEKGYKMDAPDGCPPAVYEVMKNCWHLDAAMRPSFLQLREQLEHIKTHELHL
The method, then:
as §1

The next experiment deals with T3, EphB6 (Homo sapiens, UniProt O15197).
T3 construct: endogenous in cells; host or cells: HL60 (DSMZ ACC3)
T3 sequence (O15197 32-1021): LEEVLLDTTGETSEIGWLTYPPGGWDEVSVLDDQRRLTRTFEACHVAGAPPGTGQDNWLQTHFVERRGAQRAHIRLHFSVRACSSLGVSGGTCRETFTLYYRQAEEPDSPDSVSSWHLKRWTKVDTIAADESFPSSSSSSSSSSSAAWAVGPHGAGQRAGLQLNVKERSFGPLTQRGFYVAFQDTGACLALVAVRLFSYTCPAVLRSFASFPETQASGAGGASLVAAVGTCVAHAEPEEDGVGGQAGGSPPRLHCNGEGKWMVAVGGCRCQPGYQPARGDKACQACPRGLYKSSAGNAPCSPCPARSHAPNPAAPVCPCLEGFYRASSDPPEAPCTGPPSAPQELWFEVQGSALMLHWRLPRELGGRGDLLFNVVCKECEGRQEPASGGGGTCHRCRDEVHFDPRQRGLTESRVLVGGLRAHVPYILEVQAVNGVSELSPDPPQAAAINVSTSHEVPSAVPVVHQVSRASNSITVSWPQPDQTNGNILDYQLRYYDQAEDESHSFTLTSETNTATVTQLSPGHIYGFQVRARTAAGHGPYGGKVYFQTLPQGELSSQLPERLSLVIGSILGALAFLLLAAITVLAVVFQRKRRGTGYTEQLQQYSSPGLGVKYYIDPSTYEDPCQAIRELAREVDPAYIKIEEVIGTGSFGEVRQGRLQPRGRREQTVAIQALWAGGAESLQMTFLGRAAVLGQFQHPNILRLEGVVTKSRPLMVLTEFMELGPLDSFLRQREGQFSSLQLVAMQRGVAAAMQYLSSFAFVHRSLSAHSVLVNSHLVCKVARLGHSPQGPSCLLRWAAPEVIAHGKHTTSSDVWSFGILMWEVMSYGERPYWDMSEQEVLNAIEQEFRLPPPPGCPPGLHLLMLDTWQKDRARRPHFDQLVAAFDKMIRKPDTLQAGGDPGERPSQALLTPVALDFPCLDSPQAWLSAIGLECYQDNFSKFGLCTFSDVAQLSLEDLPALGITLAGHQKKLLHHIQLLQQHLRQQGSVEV
Here is the method: as §1

The target of another experiment is T4, GAK (Homo sapiens, UniProt O14976).
T4 sequence (O14976 1-1311): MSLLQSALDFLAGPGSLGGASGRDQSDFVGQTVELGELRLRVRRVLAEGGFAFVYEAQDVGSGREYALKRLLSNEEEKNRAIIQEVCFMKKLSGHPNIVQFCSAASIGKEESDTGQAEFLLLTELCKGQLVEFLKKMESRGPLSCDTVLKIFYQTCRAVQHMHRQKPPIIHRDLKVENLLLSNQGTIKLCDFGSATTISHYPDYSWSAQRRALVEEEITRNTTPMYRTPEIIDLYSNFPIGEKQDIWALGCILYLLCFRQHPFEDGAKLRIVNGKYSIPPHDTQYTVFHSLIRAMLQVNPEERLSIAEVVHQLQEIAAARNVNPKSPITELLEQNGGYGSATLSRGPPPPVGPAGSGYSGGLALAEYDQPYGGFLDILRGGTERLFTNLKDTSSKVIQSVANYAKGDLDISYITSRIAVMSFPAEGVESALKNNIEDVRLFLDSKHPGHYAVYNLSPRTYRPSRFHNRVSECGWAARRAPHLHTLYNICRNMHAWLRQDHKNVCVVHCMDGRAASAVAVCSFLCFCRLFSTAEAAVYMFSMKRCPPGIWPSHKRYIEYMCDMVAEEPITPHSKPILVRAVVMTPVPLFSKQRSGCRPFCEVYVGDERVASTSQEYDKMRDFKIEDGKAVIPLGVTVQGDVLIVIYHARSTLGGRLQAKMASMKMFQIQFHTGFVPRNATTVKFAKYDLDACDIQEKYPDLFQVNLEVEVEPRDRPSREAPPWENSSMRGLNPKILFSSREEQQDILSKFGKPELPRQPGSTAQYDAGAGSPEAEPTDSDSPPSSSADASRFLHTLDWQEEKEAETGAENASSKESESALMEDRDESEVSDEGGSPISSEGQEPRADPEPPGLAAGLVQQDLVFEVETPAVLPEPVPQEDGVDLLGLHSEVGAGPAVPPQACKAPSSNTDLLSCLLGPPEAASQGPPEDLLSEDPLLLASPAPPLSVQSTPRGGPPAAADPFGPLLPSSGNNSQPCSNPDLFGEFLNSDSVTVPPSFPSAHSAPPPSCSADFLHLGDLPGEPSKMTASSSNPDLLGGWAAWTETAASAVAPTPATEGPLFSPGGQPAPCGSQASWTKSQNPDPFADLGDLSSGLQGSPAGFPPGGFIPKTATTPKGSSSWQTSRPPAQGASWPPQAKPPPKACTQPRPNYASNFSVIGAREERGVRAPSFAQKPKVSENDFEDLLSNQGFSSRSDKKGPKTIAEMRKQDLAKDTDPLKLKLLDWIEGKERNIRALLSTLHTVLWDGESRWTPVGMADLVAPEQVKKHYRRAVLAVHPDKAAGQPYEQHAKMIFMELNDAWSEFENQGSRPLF
Here is the method:
as §1

The next experiment addresses T5, LCK (Homo sapiens, UniProt P06239).
T5 construct: Identified kinases with CZC31326 from HL60 lysate; endogenous in cells; host or cells: HL60
Here is the method:
as §1

T5 sequence (P06239 whole entry): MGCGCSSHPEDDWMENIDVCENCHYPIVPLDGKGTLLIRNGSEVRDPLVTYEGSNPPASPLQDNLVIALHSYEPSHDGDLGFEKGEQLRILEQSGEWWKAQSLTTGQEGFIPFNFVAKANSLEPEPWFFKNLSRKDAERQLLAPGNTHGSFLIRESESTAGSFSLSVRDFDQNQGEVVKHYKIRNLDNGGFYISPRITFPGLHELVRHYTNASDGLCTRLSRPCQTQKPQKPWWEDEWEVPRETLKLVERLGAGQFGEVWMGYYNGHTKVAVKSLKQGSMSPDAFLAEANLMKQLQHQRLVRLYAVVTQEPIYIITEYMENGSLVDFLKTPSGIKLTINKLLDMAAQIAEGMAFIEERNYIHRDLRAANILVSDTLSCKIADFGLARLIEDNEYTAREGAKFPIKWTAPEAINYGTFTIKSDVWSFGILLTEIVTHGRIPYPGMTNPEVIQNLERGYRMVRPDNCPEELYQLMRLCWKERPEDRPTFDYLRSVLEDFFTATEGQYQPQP
T1 sequence (Q15131 whole entry): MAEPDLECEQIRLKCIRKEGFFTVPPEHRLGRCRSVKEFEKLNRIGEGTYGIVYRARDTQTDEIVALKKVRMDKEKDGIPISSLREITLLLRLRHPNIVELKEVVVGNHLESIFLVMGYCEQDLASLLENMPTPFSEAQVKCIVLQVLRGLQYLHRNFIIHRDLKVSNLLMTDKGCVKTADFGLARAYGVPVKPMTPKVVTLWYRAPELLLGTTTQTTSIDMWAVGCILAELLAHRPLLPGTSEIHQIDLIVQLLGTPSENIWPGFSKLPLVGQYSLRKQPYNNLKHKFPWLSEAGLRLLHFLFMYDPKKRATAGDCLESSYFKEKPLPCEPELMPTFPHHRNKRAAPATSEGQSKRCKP

What is called inhibition is the drop in the measured response relative to a control, in per cent. Low values mean little suppression, high ones strong suppression. Take `CS(=O)(=O)Nc1ccccc1Nc1nc(Nc2cccc(OCCN)c2)ncc1Cl` [CZC31326, N-(2-(2-(3-(2-aminoethoxy)phenylamino)-5-chloropyrimidin-4-ylamino)phenyl)methanesulfonamide]: the inhibition at 10 µM was determined as 96.7% at CDK10, 93.6% on EphB6, 97.9% on GAK and 86.8% on LCK. The compound also came in with a Competition % on CSK of 80.3%.

For the origin of these results see patent US20120270237A9, “METHODS FOR THE IDENTIFICATION OF KINASE INTERACTING MOLECULES AND FOR THE PURIFICATION OF KINASE PROTEINS” (Cellzone AG, priority 2009, published 2012).
